pKi: −log10 of the molar value.

In BindingDB's records for doi:10.1016/j.bmcl.2011.01.107 (Institute of Chemical Physics, 2011) one finds Ki data, which are given here for one compound.

This test deals with NAD-dependent malic enzyme (Escherichia coli K-12, maeA) (UniProt P26616). The test can be described thus: Inhibition of Escherichia coli K-12 recombinant NAD-dependent malic enzyme by Dixon plot.
Chain of NAD-dependent malic enzyme (Escherichia coli K-12, maeA) (P26616 whole entry, looked up): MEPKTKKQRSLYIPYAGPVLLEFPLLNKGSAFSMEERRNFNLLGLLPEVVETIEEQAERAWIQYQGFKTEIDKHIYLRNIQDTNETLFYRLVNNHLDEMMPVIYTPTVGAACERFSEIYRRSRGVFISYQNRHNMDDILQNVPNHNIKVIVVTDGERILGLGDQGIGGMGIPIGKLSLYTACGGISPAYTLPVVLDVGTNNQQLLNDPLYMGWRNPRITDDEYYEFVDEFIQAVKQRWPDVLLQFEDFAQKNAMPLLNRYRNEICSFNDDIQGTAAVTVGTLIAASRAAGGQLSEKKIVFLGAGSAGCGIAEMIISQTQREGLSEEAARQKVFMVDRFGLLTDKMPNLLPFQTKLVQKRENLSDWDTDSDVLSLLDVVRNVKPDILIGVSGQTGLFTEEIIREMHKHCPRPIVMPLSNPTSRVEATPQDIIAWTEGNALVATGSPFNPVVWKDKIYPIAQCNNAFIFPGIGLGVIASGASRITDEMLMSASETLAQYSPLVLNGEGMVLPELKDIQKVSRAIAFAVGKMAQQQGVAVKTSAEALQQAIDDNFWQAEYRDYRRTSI

In general, pKi refers to −log10 of the Ki, conventionally taken in molar units. Consider `COc1ccc(-c2cn([C@@H]3O[C@H](COP(=O)(O)O)[C@@H](O)[C@H]3O)nn2)cc1` [5-O-phosphate-1-N-(4'-(4''-methoxyhenyl))-[1',2',3']-triazol-beta-D-ribofuranoside], for which the pKi is 4.24.
